# According to patent US8569229B2, “Compositions and methods which modulate G-protein signaling for the treatment of inflammatory disorders such as asthma and allergic conjunctivitis” (The Children's Hospital of Philadelphia, priority 2008, dated 2013):
# “Also recorded” adds a separate entry of the source. Ends that are not written are not given here.
# Columns and labels:
# [1] = test system: rabbit ASM tissues; test: Relaxation responsiveness to isoproterenol in isolated rabbit ASM tissues half-maximally contracted with ACh; conditions: for effect of pretreatment on PGE2-induced impaired relaxation to isoproterenol: PGE2 100 nM x 24 hr; for relaxation responses to isoproterenol in control serum-exposed tissues pretreated with the agent: control (non-asthmatic) serum, 24 hr; for effect of pretreatment on salmeterol-induced impaired relaxation to isoproterenol: salmeterol 10 μM x 24 hr
# From the text: Detection of PDE4D5 mRNA transcripts: Total RNA was extracted from the cultured ASM cells using the TRIzol method (Invitrogen), and cDNAs were isolated by RT-PCR using the SuperScript First Strand Synthesis System kit from Invitrogen, with the following oligonucleotide primer sets (Integrated DNA Technologies): for PDE4D5, 5′-[…]-3′ (forward; SEQ ID NO: 2) and 5′-[…]-3′ (reverse; SEQ ID NO: 3); and for β-actin, 5′-[…]-3′ (forward; SEQ ID NO: 4) and 5′-[…]-3′ (reverse; SEQ ID NO: 5). The reaction volume was 20 μl and cycling conditions used were 35 cycles of 30 sec denaturation at 95° C., followed by 30 sec annealing at 60° C. and elongation at 72° C. for 30 sec. Ex-Tag (Takara Biotechnology) was used as DNA polymerase. […] Following protein extraction and the addition of gel-loading buffer, the extracts were loaded on a 10% SDS-PAGE gel for immunoblotting after transfer to a PVDF membrane. The membranes were then incubated overnight with monoclonal mouse anti-human primary antibodies directed against phospho-CREB and -ATF1, phospho-ERK1/2, or α-actin, and levels were detected by ECL after a 1-hr incubation with a 1:2,000 dilution of HRP-conjugated rabbit anti-mouse secondary antibody, followed by exposure to autoradiography film. The protein band intensities were quantified by densitometry. siRNA-mediated knockdown of PKA: ASM cells were seeded into 6-well plates and, at ˜40% confluency, the medium was replaced with the reduced serum-containing medium, Opti-MEM (Invitrogen). The cells were then transfected twice during a 24-hr interval with two pools of three siRNA duplexes, each pool targeted against the human PKAα or PKAγ catalytic subunits (Santa Cruz Biotechnology; sc-36240 and sc-36236, respectively), or with a non-targeted control (scrambled) siRNA duplex, using Oligofectamine (Invitrogen) as the transfection agent. The pools of siRNAs were applied to each well at a final concentration of 100 nM for each siRNA preparation. […] Transfection of ASM cells with adeno-βARK-ct: Adenovirus (adeno)-βARK-ct, an adenovirus vector encoding the βARK1 carboxyl-terminal domain which blocks Gβγ signaling (25,26), and adeno-β-gal, an adenovirus vector expressing lacZ as a negative control, were constructed using the AdenoX adenovirus construction kit (BD-Clontech). Recombinant plaques were isolated and propagated in HEK293 cells (Invitrogen), with viral purification using the cesium chloride gradient method, and viral titer detected by plaque assay. The ASM cells were transfected with either of the adenoviral vectors at a multiplicity of infection (MOI) of 100, and experiments were conducted at 24 hr following adenoviral tranfections. Pharmacodynamic studies of constrictor and relaxation responsiveness in rabbit ASM tissues: Following initial sedation and subsequent general anesthesia with intramuscular injections of xylazine (10 mg/kg) and ketamine (50 mg/kg), respectively, rabbits were sacrificed with an intravenously administered overdose of sodium pentobarbital (100 mg/kg). As described previously (16), the tracheae were excised via open thoracotomy, the loose connective tissue and epithelium were scraped and removed, and the tracheae were divided into 8 ring segments, each of 6-8 mm in length. […] After these incubations, the tissues were placed in organ baths containing modified Krebs-Ringer solution aerated with 5% CO2 in oxygen (pH of 7.35-7.40), and attached to force transducers to continuously monitor isometric tension. […] The constrictor and relaxation dose-response curves were analyzed with respect to each tissue's maximal isometric contractile force (Tmax) to ACh and maximal relaxation response (Rmax) to isoproterenol from the initial level of active cholinergic contraction. Statistical analyses: Results are expressed as mean±SE values. Comparisons between groups were made using the Student's t-test (two-tailed) or ANOVA with Tukey's post-test analysis, where appropriate.
# [2] = test system: OVA-sensitized rabbits; test: In vivo bronchoconstrictor responses to methacholine (Rrs) in OVA-sensitized, OVA-challenged rabbits; design: species or system rabbit; conditions: 1 mg/Kg by nebulizer 2 hr prior to OVA challenge, measured 24 hr after challenge
# Method: (§1) Both the OVA sensitized and control animals were then challenged with either vehicle (saline) or aerosolized OVA delivered via a nebulizer. The following day, while mechanically ventilated under general anesthesia/paralysis, the rabbits' broncho-constrictor responses to intravenous (i.v.) bolus injections of cumulatively increasing doses of methacholine (MCh) were determined and induced changes in respiratory system resistance (Rrs), measured as previously described (Grunstein et al. J. Appl. Physiol: […]. Environ. Exercise Physiol. 57:1238-1246, 1984). Lung lavage was then performed to obtain bronchoalveolar lavage fluid (BALF) samples, and the lungs were excised for histological examination in H&E-stained paraffin-embedded 4 micron sections.
# [3] = test system: OVA-sensitized rabbits; test: Lung histopathology in OVA-sensitized, OVA-challenged rabbits; type: in vivo, rabbit; conditions: pretreated OVA-sensitized+OVA challenged rabbits
# Method: as §1
# [4] = test system: OVA-sensitized rabbits; test: Allergic conjunctivitis response to ocular OVA challenge in OVA-sensitized rabbits; type: in vivo, rabbit; conditions: 15 μl of 1 μM topically 20 minutes prior to OVA, examined at 60 minutes
# Method: Similar to previous studies investigating either allergic asthma or allergic conjunctivitis in animal models, in vivo studies were conducted wherein adult NZW rabbits were initially systemically immunized with weekly intra-peritoneal (i.p.) injections of 2.5 mg ovalbumin (OVA) and 10 mg of alum adjuvant for 4-5 weeks. Following sensitization, as previously described in other animal models of allergic conjunctivitis (Groneberg D. A. et al. Allergy 58: 1101-1113, 2003), the OVA allergen was topically introduced into the conjunctival sac of the eyes of the rabbit to examine its ocular allergic inflammatory response. […] Accordingly, for each animal, 15 μl of a sterile 1 μM concentration of the MPS:anti-Gβγ peptide (prepared in PBS) was topically applied into the conjunctival sac of one eye 20 minutes prior to subsequent instillation of OVA (500 μg in 15 μl PBS), and the carrier MPS peptide alone (i.e., control “sham” pretreatment) was applied to the other eye 20 minutes prior to subsequent instillation of OVA. The eyes were then clinically examined for an acute ocular inflammatory response to OVA challenge and photographs were taken of each eye at 60 minutes following OVA challenge. […]
# [5] = test system: human ASM cells; test: Assay of cAMP PDE activity in ASM cell lysates; type: cell-based; conditions: for effect of pretreatment on PGE2-induced increase in PDE activity: PGE2 100 nM x 24 hr, peptides 30 μM (Example III)
# [6] = listed as Gβγ inhibitory peptide
# [7] = listed as anti-Gβγ cell-permeable inhibitory peptide
# [8] = listed as MPS-conjugated anti-Gβγ peptide
substance,measurement,setting,value
MPS-Phosducin-like protein C terminus (AAVALLPAVLLALLAVTDQLGEDFFAVDLEAFLQEFGLLPEKE; also: MPS attached) [anti-Gβγ peptide],effect of pretreatment on PGE2-induced impaired relaxation to isoproterenol,[1]; [6],prevents
same,effect of pretreatment on PGE2-induced impaired relaxation to isoproterenol,[1]; [7],prevented
same,relaxation responses to isoproterenol in control serum-exposed tissues pretreated with the agent,[1]; [6],enhances
same,relaxation responses to isoproterenol in control serum-exposed tissues pretreated with the agent,[1]; listed as Gβγ-inhibitory peptide,somewhat increased
same,effect of pretreatment on salmeterol-induced impaired relaxation to isoproterenol,[1],prevented
same,effect of pretreatment on salmeterol-induced impaired relaxation to isoproterenol,[1]; [8],ablated
same,effect of pretreatment on impaired relaxation to isoproterenol in allergic asthmatic (AS) serum-exposed tissues,[1]; tissues passively sensitized 24 hr with AS rabbit serum,prevented
same,effect of the agent alone on relaxation responses to isoproterenol,[1]; vehicle-exposed control tissues,no significant effect
same,effect on airway constrictor hyper-responsiveness (Rrs responses to MCh),[2],largely abrogated
same,effect on airway constrictor hyper-responsiveness (Rrs responses to MCh),[2]; listed as MPS-conjugated anti-G βγ peptide,prevented to a similar degree
same,effect on pulmonary inflammatory response (peribronchial and parenchymal inflammatory cell infiltration),[3],markedly suppressed to a similar extent; also recorded: markedly suppresses
same,clinical signs of allergic conjunctivitis after ocular OVA challenge,[4],virtually no clinical signs of conjunctival inflammation
same,clinical signs of allergic conjunctivitis after ocular OVA challenge,[4]; [8],signs of allergic conjunctivitis are absent
same,effect of pretreatment on PGE2-induced increase in PDE activity,[5]; [6],completely ablated
same,effect of pretreatment on PGE2-induced increase in PDE activity,[5]; [7],completely abrogated
same,effect of pretreatment on salmeterol- and isoproterenol-induced increase in PDE activity,[5]; salmeterol or isoproterenol 10 μM x 24 hr,completely abrogated; also recorded: ablated
